# Literature values as cited in patent publication US20020169561A1, “Modular computational models for predicting the pharmaceutical properties of chemical compunds” (priority 2001, published 2002).
# Values joined by “and” are separate entries in the source; they are usually repeats but may differ in a detail not shown here. Identical values can stand only once. Like-named read-outs stand apart in the source and are kept apart here.
# Assays:
# [1] = target: T1, renin (Homo sapiens, UniProt P00797); parameters: −ΔS: unit not given here; conditions: for −ΔH: enthalpy of binding to renin; for −ΔS: entropy of binding to renin; for −ΔG: free energy of binding to renin; for Kd: renin inhibitors
# T1 sequence (P00797 67-406): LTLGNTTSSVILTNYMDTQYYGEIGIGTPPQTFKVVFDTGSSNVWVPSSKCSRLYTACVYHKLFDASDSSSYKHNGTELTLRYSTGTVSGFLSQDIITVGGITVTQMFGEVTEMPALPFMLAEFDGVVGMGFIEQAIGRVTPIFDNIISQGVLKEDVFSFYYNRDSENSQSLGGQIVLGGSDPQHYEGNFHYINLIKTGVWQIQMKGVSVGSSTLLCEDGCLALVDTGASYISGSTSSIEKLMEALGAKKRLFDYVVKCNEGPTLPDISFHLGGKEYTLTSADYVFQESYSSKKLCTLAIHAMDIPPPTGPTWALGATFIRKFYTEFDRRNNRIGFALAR
# [2] = in vivo drug absorption, compiled by search of the literature
# [3] = tested on: Caco-2 cell monolayer
# [4] = Caco-2 permeability coefficient, Table 3
# [5] = observed, training set, Table 7
Compound,% Absorbed [2] [%],"Permeability × 10^6 (cm/sec) [3, 4]","Obs. Pcaco-2x10^6 [3, 5]",other results
Ac-pro-phe-his-sta-ile-NH2 [Compound U72408E],,,,−ΔH [1]: 14.69 kcal/mol; −ΔS [1]: 79.6; −ΔG [1]: 9.9 kcal/mol; Kd [1]: 98 nM
CC(C)(C)NCC(O)c1cc(O)cc(O)c1 (stereo not shown) [Terbutaline],73,0.47 × 10^6 (cm/sec),0.47 x10^6,
NC(N)=O [Urea],,4.56 × 10^6 (cm/sec),,
Ac-pro-phe-his-phe-Y[CH2NH]phe-NH2 [Compound U71909E],,,,−ΔH [1]: 13.70 kcal/mol; −ΔS [1]: 78.4; −ΔG [1]: 10.6 kcal/mol; Kd [1]: 29 nM
CNCCCN1c2ccccc2CCc2ccccc21 [Desipramine],95,24.20 × 10^6 (cm/sec),24.2 x10^6,
COCCc1ccc(OCC(O)CNC(C)C)cc1 (stereo not shown) [Metoprolol],,23.70 × 10^6 (cm/sec),23.7 x10^6,
O=C(O)c1ccccc1O [Salicylic acid],,22.00 × 10^6 (cm/sec),22 x10^6,
O=C1NC(=O)C(c2ccccc2)(c2ccccc2)N1 [Phenytoin],90,26.70 × 10^6 (cm/sec),26.7 x10^6,
Nc1nc(O)c2ncn(COC(CO)CO)c2n1 [Ganciclovir],3,,,
COc1ccc2c(c1)c(CC(=O)O)c(C)n2C(=O)c1ccc(Cl)cc1 [Indomethacin],,20.40 × 10^6 (cm/sec),20.4 x10^6,
OC[C@@H](O)[C@@H](O)[C@H](O)[C@H](O)CO [Mannitol],16,0.38 × 10^6 (cm/sec),,
CC(C)NCC(O)COc1cccc2ccccc12 (stereo not shown) [Propranolol],,21.80 × 10^6 (cm/sec),,
Cc1c(N(C)C)c(=O)n(-c2ccccc2)n1C [Aminopyrine],,36.5 × 10^6 (cm/sec),,
CN(C)CCCN1c2ccccc2Sc2ccc(Cl)cc21 [Chlorpromazine],90,19.90 × 10^6 (cm/sec),19.9 x10^6,
Iva-his-pro-phe-his-sta-ile-phe-NH2 [Compound U77455E],,,,−ΔH [1]: 21.36 kcal/mol; −ΔS [1]: 108.9; −ΔG [1]: 12.4 kcal/mol; Kd [1]: 1.7 nM
CC(C)(C)NC[C@H](O)COc1nsnc1N1CCOCC1 [Timolol],72,12.80 × 10^6 (cm/sec),12.8 x10^6,
C[C@@H]1C[C@H]2[C@@H]3CCC4=CC(=O)C=C[C@]4(C)[C@@]3(F)[C@@H](O)C[C@]2(C)[C@@]1(O)C(=O)CO [Dexamethasone],100,,,
CC(CCc1ccccc1)NCC(O)c1ccc(O)c(C(N)=O)c1 (stereo not shown) [Labetalol],90,,,
C[C@]12C[C@H](O)[C@H]3[C@@H](CCC4=CC(=O)CC[C@@]43C)[C@@H]1CC[C@@H]2C(=O)CO [Corticosterone],100,,21.2 x10^6,
Ac-phe-his-sta-ile-NH2 [Compound U72407E],,,,−ΔH [1]: 26.10 kcal/mol; −ΔS [1]: 114.8; −ΔG [1]: 9.5 kcal/mol; Kd [1]: 203 nM and 204 nM
Cc1cn([C@H]2C[C@H](N=[N+]=[N-])[C@@H](CO)O2)c(=O)[nH]c1=O [Zidovudine],100,6.93 × 10^6 (cm/sec),,

Compound,% Absorbed [2] [%],"Permeability × 10^6 (cm/sec) [3, 4]","Obs. Pcaco-2x10^6 [3, 5]",other results
CC(=O)[C@H]1CC[C@H]2[C@@H]3CCC4=CC(=O)CC[C@]4(C)[C@H]3CC[C@]12C [Progesterone],,23.70 × 10^6 (cm/sec),23.7 x10^6,
Ac-pro-phe-his-leu-Y[CH(OH)CH2]val-ile-NH2 [Compound U77646E],,,,−ΔH [1]: 28.75 kcal/mol; −ΔS [1]: 131.1; −ΔG [1]: 11.5 kcal/mol; Kd [1]: 5.4 nM
Clc1cccc(Cl)c1N=C1NCCN1 [Clonidine],100,21.80 × 10^6 (cm/sec),21.8 x10^6,
CC(C)(C)NCC(O)COc1cccc2c1CC(O)C(O)C2 (stereo not shown) [Nadolol],,3.88 × 10^6 (cm/sec),3.88 x10^6,
CCC12CCN(CC3(O)CC3)C(Cc3ccc(O)cc31)C2(C)C (stereo not shown) [Bremazocine],,,8.02 x10^6,Permeability × 10^6 (cm/sec) ([3]; Caco-2): 8.02 × 10^6 (cm/sec)
CN1C(=O)CN=C(c2ccccc2)c2cc(Cl)ccc21 [Diazepam],100,,,
Nc1nc2c(ncn2COCCO)c(=O)[nH]1 [Acyclovir],,0.25 × 10^6 (cm/sec),0.25 x10^6,
Ac-pro-phe-his-phe-Y[CH2NH]phe-Mba [Compound U77451E],,,,−ΔH [1]: 26.70 kcal/mol; −ΔS [1]: 125.3; −ΔG [1]: 12.2 kcal/mol; Kd [1]: 2.5 nM
CN1CCCC1c1cccnc1 (stereo not shown) [Nicotine],100,,,Obs. Pcaco-2x10^6 ([3]; Caco-2): 19.4 x10^6; Permeability × 10^6 (cm/sec) ([3]; Caco-2): 19.40 × 10^6 (cm/sec)
CC(C)NCC(O)COc1cccc2[nH]ccc12 (stereo not shown) [Pindolol],95,16.70 × 10^6 (cm/sec),16.7 x10^6,
Ac-his-pro-phe-his-sta-ile-NH2 [Compound U72409E],,,,−ΔH [1]: 22.63 kcal/mol; −ΔS [1]: 108.0; −ΔG [1]: 10.8 kcal/mol; Kd [1]: 23 nM
c1ccc(C2(N3CCCCC3)CCCCC2)cc1 [Phencyclidine],,,,Obs. Pcaco-2x10^6 ([3]; Caco-2): 24.7 x10^6; Permeability × 10^6 (cm/sec) ([3]; Caco-2): 24.70 × 10^6 (cm/sec)
Ac-D-pro-phe-his-leu-Y[CH(OH)CH2]val-ile-NH2 [Compound U77647E],,,,−ΔH [1]: 20.33 kcal/mol; −ΔS [1]: 105.5; −ΔG [1]: 12.4 kcal/mol; Kd [1]: 1.3 nM
CC(=O)CC(c1ccccc1)c1c(O)c2ccccc2oc1=O (stereo not shown) [Warfarin],,21.10 × 10^6 (cm/sec),,
NCCc1ccc(O)c(O)c1 [Dopamine],,9.33 × 10^6 (cm/sec),9.33 x10^6,
C[C@]12CC[C@H]3[C@@H](CCC4=CC(=O)CC[C@@]43C)[C@@H]1CC[C@@H]2O [Testosterone],100,,,Obs. Pcaco-2x10^6 ([3]; Caco-2): 24.9 x10^6
C=CCc1ccccc1OCC(O)CNC(C)C (stereo not shown) [Alprenolol],93,25.30 × 10^6 (cm/sec),25.3 x10^6,
Ac-phe-his-phe-Y[CH2NH]phe-NH2 [Compound U73777E],,,,−ΔH [1]: 14.20 kcal/mol; −ΔS [1]: 76.3; −ΔG [1]: 9.4 kcal/mol; Kd [1]: 220 nM
Ac-phe-his-leu-y[CH(OH)CH2]val-ile-NH2 [Compound U80631E],,,,−ΔH [1]: 14.28 kcal/mol; −ΔS [1]: 75.7; −ΔG [1]: 9.2 kcal/mol; Kd [1]: 370 nM
O=C(O)c1cc(/N=N/c2ccc(S(=O)(=O)Nc3ccccn3)cc2)ccc1O [Sulfasalazine],,0.30 × 10^6 (cm/sec),0.3 x10^6,
